Source: patent US12509452B2, “Substituted-isoxazoline-containing aromatic compound, preparation method therefor, herbicidal composition and use thereof” (QINGDAO KINGAGROOT CHEMICAL COMPOUND CO., LTD., priority 2019, dated 2025)

What was measured:
Test in all cases: weeding effect in post-emergence stage
Format in all cases: in vivo
[1] = tested on: Alopecurus japonicus
From the text: (§1) The activity level criteria for plant damage (i.e., growth control rate) are as follows: • Level 5: growth control rate is above 85%; • Level 4: growth control rate is greater than or equal to 60% and less than 85%; • Level 3: growth control rate is greater than or equal to 40% and less than 60%; • Level 2: growth control rate is greater than or equal to 20% and less than 40%; • Level 1: growth control rate is greater than or equal to 5% and less than 20%; • Level 0: growth control rate is less than 5%.
(§2) The above growth control rates are fresh weight control rates.
(§3) Experiment on weeding effect in post-emergence stage:
(§4) Monocotyledonous and dicotyledonous weed seeds (Descurainia sophia, Capsella bursa-pastoris, Abutilon theophrasti, Galium aparine, Stellaria media, Lithospermum arvense, Rorippa indica, Alopecurus aequalis, Alopecurus japonicus, Beckmannia syzigachne, Sclerochloa dura, Conyza Canadensis, Phleum paniculatum, Veronica didyma Tenore, Bromus japonicus, Aegilops tauschii, Phalaris arundinacea, Amaranthus retroflexus, Chenopodium album, Commelina communis, Sonchus arvensis, Convolvulus arvensis, Cirsium setosum, Solanum nigrum, Acalypha australis, Digitaria sanguinalis, Echinochloa crusgalli, Setaria viridis, Setaria glauca, Leptochloa chinensis, Monochoria vaginalis, Sagittaria trifolia, Scirpus juncoides, Cyperus rotundus, Cyperus iria, Cyperus difformis, Fimbristylis, Portulaca oleracea, Xanthium sibiricum, Pharbitis nil, Conyza japonica, etc.) and major crop seeds (wheat, corn, rice, soybean, cotton, oilseed rape, millet, sorghum, potato, sesame, ricinus, etc.) were placed in plastic pots filled with soil, then covered with 0.5-2 cm of soil, allowed to grow in a good greenhouse environment. After 2 weeks of sowing, the test plants were treated in the 2-3 leaf stage. The tested compounds of the present invention were respectively dissolved in acetone, then added with Tween 80 and 1.5 liter/ha of emulsifiable concentrate of methyl oleate as synergist, diluted with a certain amount of water to obtain a solution with a certain concentration, and sprayed with a spray tower onto the plants. After the application, the plants were cultured for 3 weeks in the greenhouse, and then the experimental results of the weeding were counted. The doses of the used compounds were 500, 250, 125, 60, 15, 7.5 g a.i./ha, and the averages were obtained by repeating for three times.

[2] = tested on: Beckmannia syzigachne
From the text: as §1, §2, §3, §4

[3] = tested on: Conyza japonica
From the text: as §1, §2, §3, §4

[4] = tested on: Rorippa indica
From the text: as §1, §2, §3, §4

SMILES	weeding effect in post-emergence stage, Alopecurus japonicus (activity level) ([1]; dose 125 g a.i./ha)	weeding effect in post-emergence stage, Beckmannia syzigachne (activity level) ([2]; dose 125 g a.i./ha)	weeding effect in post-emergence stage, Conyza japonica (activity level) ([3]; dose 15 g a.i./ha)	weeding effect in post-emergence stage, Conyza japonica (activity level) ([3]; dose 125 g a.i./ha)	weeding effect in post-emergence stage, Rorippa indica (activity level) ([4]; dose 15 g a.i./ha)	weeding effect in post-emergence stage, Rorippa indica (activity level) ([4]; dose 125 g a.i./ha)	weeding effect in post-emergence stage, Alopecurus japonicus (activity level) ([1]; dose 15 g a.i./ha)	weeding effect in post-emergence stage, Beckmannia syzigachne (activity level) ([2]; dose 15 g a.i./ha)
CCOCC1(C(=O)OCC)CC(c2cc(-n3c(=O)n(C)c(=S)n(C)c3=O)c(F)cc2Cl)=NO1 (racemic) [Compound 43]	5 (Level 5: growth control rate is above 85%)	5 (Level 5: growth control rate is above 85%)	4 (Level 4: growth control rate is greater than or equal to 60% and less than 85%)	5 (Level 5: growth control rate is above 85%)	5 (Level 5: growth control rate is above 85%)	5 (Level 5: growth control rate is above 85%)	–	–
CCOC(=O)COCC1(C(=O)OCC)CC(c2cc(-n3c(=O)n(C)c(=S)n(C)c3=O)c(F)cc2Cl)=NO1 (racemic) [Compound 54]	5 (Level 5: growth control rate is above 85%)	5 (Level 5: growth control rate is above 85%)	–	5 (Level 5: growth control rate is above 85%)	–	5 (Level 5: growth control rate is above 85%)	–	–
COC(=O)C1(c2ccccc2)CC(c2cc(-n3c(=O)n(C)c(=S)n(C)c3=O)c(F)cc2Cl)=NO1 (racemic) [Compound 56]	5 (Level 5: growth control rate is above 85%)	5 (Level 5: growth control rate is above 85%)	–	5 (Level 5: growth control rate is above 85%)	–	5 (Level 5: growth control rate is above 85%)	–	–
COC(=O)C1(Cc2ccccc2)CC(c2cc(-n3c(=O)n(C)c(=S)n(C)c3=O)c(F)cc2Cl)=NO1 (racemic) [Compound 59]	5 (Level 5: growth control rate is above 85%)	5 (Level 5: growth control rate is above 85%)	–	5 (Level 5: growth control rate is above 85%)	–	5 (Level 5: growth control rate is above 85%)	–	–
CCOC(=O)C1(CC)CC(c2cc(-n3c(=O)cc(C(F)(F)F)n(C)c3=O)c(F)cc2Cl)=NO1 (racemic) [Compound 105]	5 (Level 5: growth control rate is above 85%)	5 (Level 5: growth control rate is above 85%)	5 (Level 5: growth control rate is above 85%)	5 (Level 5: growth control rate is above 85%)	5 (Level 5: growth control rate is above 85%)	5 (Level 5: growth control rate is above 85%)	5 (Level 5: growth control rate is above 85%)	5 (Level 5: growth control rate is above 85%)
CCOC(=O)C1(C2CC2)CC(c2cc(-n3c(=O)cc(C(F)(F)F)n(C)c3=O)c(F)cc2Cl)=NO1 (racemic) [Compound 119]	5 (Level 5: growth control rate is above 85%)	5 (Level 5: growth control rate is above 85%)	5 (Level 5: growth control rate is above 85%)	5 (Level 5: growth control rate is above 85%)	5 (Level 5: growth control rate is above 85%)	5 (Level 5: growth control rate is above 85%)	5 (Level 5: growth control rate is above 85%)	5 (Level 5: growth control rate is above 85%)
